Structures are written as SMILES.

One series has as its system Bhas42 cells. In words: Carcinogenicity prediction test (transformation test based on OECD GD231). The note with it: in vitro. Format: cell-based. Here is the method: Using the aldehyde compositions obtained in Examples and Lilial (3-(p-tert-butylphenyl)-2-methylpropanal), a transformation test (an in vitro carcinogenicity prediction test using Bhas42 cells) was performed based on OECD GD231 to determine whether the carcinogenicity was negative or positive. When the result of this test is negative, it is predicted that there is no possibility of causing carcinogenicity, and safety is high.

Series [1] is described as follows: Evaluation of threshold of smell. As to conditions: diluted with dipropylene glycol; lower limit concentration at which smell can be distinguished. Here is the method: A filter paper having a width of 8 mm and a length of 15 cm was impregnated with each diluent and a lower limit concentration at which smell can be distinguished by a method in which a specialized panelist sniffs was evaluated. As the lower limit concentration is lower, the threshold of smell is lower, and the intensity and diffusibility of the aroma are more excellent.

`CC(C=O)Cc1ccc(C(C)(C)C)cc1` (centres unmarked) [Comparative Example 5, 3-(p-tert-butylphenyl)-2-methylpropanal]: the Carcinogenicity prediction test result with Bhas42 cells was “Positive”. In series [1], this compound yielded a Threshold of smell of 1 ppm.

These data come from patent US20240391859A1, “ALDEHYDE COMPOSITION” (MITSUBISHI GAS CHEMICAL COMPANY, INC., priority 2021, published 2024).
